{"source": "patent US7087214B2", "about": "“Water-soluble porphyrin platinum compounds with high tumor selectivity and their use for the treatment of benign and malignant tumor diseases” (Zentaris GmbH, priority 2002, dated 2006)", "key": {"TCC-SUP cells": {"tested_on": "TCC-SUP cells", "assay": "End-point chemosensitivity assay, hematoporphyrin platinum derivatives, dark and irradiated (600–730 nm)", "format": "cell-based, human", "settings": "1 μM concentration; hematoporphyrin-platinum series; bladder cancer cells TCC-SUP", "from_the_text": "(§1) Data of the cytotoxic effect was obtained, for instance, on the human tumor cell lines TCC-SUP and J82. The effect of the compounds was investigated in the dark and under irradiation with light at a wavelength of 600–730 nm. Selected compounds are clearly more activ cytotoxically under irradiation. There is a synergism between the cytotoxic effect of the platinum component and the photodynamic principle.\n(§2) To determine the antiproliferative activity of the new porphyrin ligands and the corresponding platinum complexes with different amine non-leaving groups two bladder cancer cell lines TCC-SUP and J82 were selected as in vitro models.\n(§3) To discriminate between the cytotoxic and phototoxic effects all experiments were carried out in duplicate. The cells were seeded into microplates and the test compounds were added after 48 h. One batch of the microplates was kept in the dark until the end of the experiment, whereas the other microplates were irradiated 48 h after addition of the substances for 10 min with a light dose of 24 J·cm^−2, before the plates were reincubated in the dark.\n(§4) End-Point Chemosensitivity Assay.\nHematoporphyrin Platinum Derivatives Type."}, "[1]": {"tested_on": "bladder cancer cell lines TCC-SUP and J82", "assay": "End-point chemosensitivity assay, tetraarylporphyrin platinum derivatives, dark and irradiated (600–730 nm)", "format": "cell-based, human", "settings": "1 μM concentration; tetraarylporphyrin-platinum series", "from_the_text": "as §1, §2, §3, §4\nTetraarylporphyrin Platinum Derivatives Type."}}, "data": [{"compound": "N.N.[Cl][Pt][Cl]", "note": "[cisplatin]", "values": [{"measurement": "T/Ccorr.", "setting": "TCC-SUP cells", "value": "approximately 2%"}]}, {"compound": "(+)-trans-1,2-Diaminocyclohexane[2-(4-{10,15,20-tris[4-(1,4,7,10-tetraoxaundecyl)phenyl]porphyrin-5-yl}phenoxy)malonato]platinum(II) [compound 29]", "values": [{"measurement": "T/Ccorr.", "setting": "[1]", "value": "~57", "unit": "%"}]}]}
